Assay results as given in US20100075360A1, “UV BASED CELL VIABILITY AS AN INDICATOR OF SUN PROTECTION FACTOR AND METHODS OF MEASUREMENT THEREOF” (priority 2008, published 2010).
Where two headings read alike, the source gives them in different places.

What was measured:
[1] = tested on: Swiss 3T3 fibroblast cells; test: Percentage of UV protection in Swiss 3T3 fibroblast cells (NRU staining); assay type: cell-based, mouse; settings: UV B 5 minutes
Protocol: The unexposed region of the plate was covered by aluminum foil. […] The percentage of UV protection was calculated with respect to unexposed cells.

[2] = tested on: Swiss 3T3 fibroblast cells
Protocol: Swiss 3T3 Mouse fibroblast cells and HaCAT Human keratinocytes were obtained from ATCC and cultured in DMEM medium supplemented with 10% FBS. The confluent cultures are harvested by trypsinization and expanded during two more passages before they were used for the experiments. Medium and other culture components were renewed after 48-72 h. All cell cultures were maintained in a humidified atmosphere at 37° C. in 95% air and 5% CO2.
UV lamp of 14.7 W, 0.3 A, 55V with an intensity of 33.3 μW/cm^2 from Sankyo Denki Co., Ltd.
The neutral red (NR) uptake assay: The NR cytotoxicity assay procedure is a cell survival/viability chemosensitivity assay, based on the ability of viable cells to incorporate and bind neutral red, a supravital dye. NR is a weak cationic dye that readily penetrates cell membranes by non-ionic diffusion, accumulating intracellularly in lysosomes, where it binds with anionic sites in the lysosomal matrix. Alterations of the cell surface or the sensitive lysosomal membrane lead to lysosomal fragility and other changes that gradually become irreversible. Such changes brought about by UV exposure result in a decreased uptake and binding of NR. It is thus possible to distinguish between viable, damaged, or dead cells, which are the basis of this assay. The dye taken up by the cells is subsequently extracted and measured. The dye was dissolved in distilled water at a concentration of 0.5 mg/100 μl. 80 μl of this stock solution was dissolved in 15 ml of pre warmed DMEM medium. The developer solution consists of 25 ml of water, 24.5 ml of ethanol and 0.5 ml of glacial acetic acid. The NRU dye and the developer solutions are to be made fresh before use. After UV exposure and consequent incubation for 72 hrs, the culture medium is replaced with NRU dye and incubated for 3 hrs at 37° C., after which the dye is washed off thrice with PBS. The dye is dissolved in 100 μl of developer solution and incubated at RT for 20 min. The OD was determined at 492 nm using a microplate reader.
Swiss 3T3 fibroblasts were plated in a 96 well micropipette at a seeding density of 3000 cells per well. […] After exposure, the cells were incubated in a CO2 incubator for 48 hrs and developed by the NRU staining technique to analyze the cell viability. The SPF of 1.25% OMC was determined with respect to the untreated cells.

CCCCC(CC)COC(=O)C=Cc1ccc(OC)cc1 (stereo not shown) [OMC, Octyl methoxy cinnamate]
% UV protection ([1]; 0.15% OMC in culture medium, vs unexposed cells): 56% | % UV protection ([1]; 0.31% OMC in culture medium): 71% | % UV protection ([1]; 0.62% OMC in culture medium): 77% | % UV protection ([1]; 1.25% OMC in culture medium): 90% | minimal cytotoxic dose (MCDp) for protected cells ([2]; 1.25% OMC): 0.144 J/cm^2 | % UV toxicity ([2]; 1.25% OMC, UV dosage 0.0072 J/cm^2): 0% | % UV toxicity ([2]; 1.25% OMC, UV dosage 0.0216 J/cm^2): 0% | % UV toxicity ([2]; 1.25% OMC, UV dosage 0.036 J/cm^2): 0% | % UV toxicity ([2]; 1.25% OMC, UV dosage 0.0504 J/cm^2): 0% | % UV toxicity ([2]; 1.25% OMC, UV dosage 0.072 J/cm^2): 0% | % UV toxicity ([2]; 1.25% OMC, UV dosage 0.216 J/cm^2): 39.62% | minimal cytotoxic dose (MCDp) for protected cells ([2]; 7% OMC): 0.54 J/cm^2 | SPF (MCDp/MCDu) ([2]; 7% OMC, MCDu 0.0216 J/cm^2): 25 | % UV toxicity ([2]; 7% OMC, UV dosage 0.0072 J/cm^2): 0% | % UV toxicity ([2]; 7% OMC, UV dosage 0.0216 J/cm^2): 0% | % UV toxicity ([2]; 7% OMC, UV dosage 0.036 J/cm^2): 0% | % UV toxicity ([2]; 7% OMC, UV dosage 0.0504 J/cm^2): 0% | % UV toxicity ([2]; 7% OMC, UV dosage 0.072 J/cm^2): 0% | % UV toxicity ([2]; 7% OMC, UV dosage 0.18 J/cm^2): 0% | % UV toxicity ([2]; 7% OMC, UV dosage 0.432 J/cm^2): 0% | % UV toxicity ([2]; 7% OMC, UV dosage 0.54 J/cm^2): 7% | % UV toxicity ([2]; 7% OMC, UV dosage 0.648 J/cm^2): 9%
